Reference: US8846873B2, “Antibodies directed to GPNMB and uses thereof” (Celldex Therapeutics, Inc., priority 2004, dated 2014)
Entries after “also recorded” stand apart in the source; their conditions may differ.

Assays:
[1] = target: T1, purified recombinant GPNMB (Homo sapiens, UniProt Q14956); assay: ELISA of CR011 engineered antibodies on recombinant GPNMB; assay type: binding; settings: anti-FLAG-HRP detection
T1 construct: made in house; host or cells: HEK 293
T1 sequence (Q14956 23-492): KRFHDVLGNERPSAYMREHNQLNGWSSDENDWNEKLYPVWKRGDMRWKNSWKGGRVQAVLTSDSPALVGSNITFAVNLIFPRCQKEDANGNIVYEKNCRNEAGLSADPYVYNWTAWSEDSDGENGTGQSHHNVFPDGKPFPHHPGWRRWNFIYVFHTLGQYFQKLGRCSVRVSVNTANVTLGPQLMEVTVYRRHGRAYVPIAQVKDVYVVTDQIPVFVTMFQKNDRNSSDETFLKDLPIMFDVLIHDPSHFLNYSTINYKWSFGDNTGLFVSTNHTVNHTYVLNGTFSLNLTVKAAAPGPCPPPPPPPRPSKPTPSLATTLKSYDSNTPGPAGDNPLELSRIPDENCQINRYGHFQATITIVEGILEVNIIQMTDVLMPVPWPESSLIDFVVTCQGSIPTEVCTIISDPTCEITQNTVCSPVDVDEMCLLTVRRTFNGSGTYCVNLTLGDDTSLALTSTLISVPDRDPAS
Description: Plates were then blocked and washed. Various dilutions of the CR011 engineered antibodies were added into the wells. Plates were incubated for 1 h and washed. HRP-conjugated anti-FLAG M2 mAb (Sigma, St. Louis, Mo.) was added into the wells for 1 h, washed and the reaction developed with the TMB substrate reagent as described by the manufacturer (Pharmingen, San Jose, Calif.).
Plates were coated with human GPNMB protein tagged with His and V5. […] Binding of the recombinant mAbs (both monomer and dimer) was detected using anti-FLAG-HRP conjugated mAb M2 (Sigma).

human T cells (CD3) = assay: Flow cytometry of CR011 engineered antibodies; assay type: binding; settings: 5 μg/sample/100 μl
Text: (§1) (Jackson ImmunoResearch, West Grove, Pa.) Ten thousand events were collected and analyzed on a FACSCalibur instrument (Becton Dickinson, Mountain View, Calif.).
(§2) To verify binding of the bi-scFv to human CD3 molecules, we used purified human T cells. […] Control anti-CD3 mAb bound to T cells, and control anti-GPNMB mAb bound to SK-Mel-5 tumor cells.

SK-Mel-5 cells = assay: Flow cytometry of CR011 engineered antibodies; assay type: binding, human; settings: 5 μg/sample/100 μl
Text: as §1, §2

SK-Mel-5 tumor cells = assay: T lymphocyte redirected cytotoxicity (PKH2 / propidium iodine flow cytometry); assay type: cell-based, human; settings: purified T cells cultured O/N with tumor cells
Description: Tumor cells were labeled with PKH2 green fluorescent linker kit (Sigma) and washed. Purified T cells were cultured O/N with PKH2-labeled tumor cells in the presence or absence of purified bi-scFv. Death of GPNMB positive tumor cells was measured by propidium iodine (PI) incorporation.

CR011 scFv: CR011 single chain antibody VL-L4-VH Flag; SEQ ID NO: 355
binding to recombinant GPNMB protein [1]: bound to the GPNMB target; also recorded: bind to the recombinant GPNMB protein
binding to T cells (human T cells (CD3)): did not bind CD3 positive T cells
binding to SK-Mel-5 cells (SK-Mel-5 cells): present at a low level
killing of SK-Mel-5 tumor cells by T lymphocytes (SK-Mel-5 tumor cells): did not increase killing
